We go through two molecules from article PMC9901178 (bioRxiv, 2023).

Assay [1] has as its system HEK293/GC-A^+/AT1^+ cells. The assay is described as follows: Intracellular cGMP generation in HEK293/GC-A+/AT1+ cells. It counts as cell-based, human. To be noted: ANP 10^−8 M, ANGII 10^−8 M.
For another assay, the system named is PKC. The assay is described as follows: PKC activity by western blot of phosphorylated pan-PKC substrates. In kind it is cell-based, human. Particulars: Go6983 5 μM, HEK293/GC-A^+/AT1^+ cells. (In general: Immunoblotting shows a protein as a band on a membrane.)

For the molecule `COc1ccc2c(c1)c(C1=C(c3c[nH]c4ccccc34)C(=O)NC1=O)cn2CCCN(C)C` [Go6983], the “Rescue of the suppression effect of ANGII on ANP-induced cGMP” value in assay [1] (Go6983 5 μM) is on record as “significantly rescued”. Moreover, in the assay on PKC, the “PKC activity, phosphorylated status of pan-PKC substrates” value is reported as “effectively inhibited PKC activity”.
As for `CCCCC(=O)N(Cc1ccc(-c2ccccc2-c2nnn[nH]2)cc1)[C@H](C(=O)O)C(C)C` [valsartan], in assay [1] (valsartan 1 μM), the “Rescue of the suppression effect of ANGII on ANP-induced cGMP” value is recorded as “significantly rescued”.
